The record followed here is ChEMBL document CHEMBL5154644, “Design, Synthesis, and Structure-Activity Relationship Optimization of Pyrazolopyrimidine Amide Inhibitors of Phosphoinositide 3-Kinase γ (PI3Kγ)” (J Med Chem, 2022).

Phosphatidylinositol 4,5-bisphosphate 3-kinase catalytic subunit alpha isoform, sequence (P42336 whole entry, canonical isoform): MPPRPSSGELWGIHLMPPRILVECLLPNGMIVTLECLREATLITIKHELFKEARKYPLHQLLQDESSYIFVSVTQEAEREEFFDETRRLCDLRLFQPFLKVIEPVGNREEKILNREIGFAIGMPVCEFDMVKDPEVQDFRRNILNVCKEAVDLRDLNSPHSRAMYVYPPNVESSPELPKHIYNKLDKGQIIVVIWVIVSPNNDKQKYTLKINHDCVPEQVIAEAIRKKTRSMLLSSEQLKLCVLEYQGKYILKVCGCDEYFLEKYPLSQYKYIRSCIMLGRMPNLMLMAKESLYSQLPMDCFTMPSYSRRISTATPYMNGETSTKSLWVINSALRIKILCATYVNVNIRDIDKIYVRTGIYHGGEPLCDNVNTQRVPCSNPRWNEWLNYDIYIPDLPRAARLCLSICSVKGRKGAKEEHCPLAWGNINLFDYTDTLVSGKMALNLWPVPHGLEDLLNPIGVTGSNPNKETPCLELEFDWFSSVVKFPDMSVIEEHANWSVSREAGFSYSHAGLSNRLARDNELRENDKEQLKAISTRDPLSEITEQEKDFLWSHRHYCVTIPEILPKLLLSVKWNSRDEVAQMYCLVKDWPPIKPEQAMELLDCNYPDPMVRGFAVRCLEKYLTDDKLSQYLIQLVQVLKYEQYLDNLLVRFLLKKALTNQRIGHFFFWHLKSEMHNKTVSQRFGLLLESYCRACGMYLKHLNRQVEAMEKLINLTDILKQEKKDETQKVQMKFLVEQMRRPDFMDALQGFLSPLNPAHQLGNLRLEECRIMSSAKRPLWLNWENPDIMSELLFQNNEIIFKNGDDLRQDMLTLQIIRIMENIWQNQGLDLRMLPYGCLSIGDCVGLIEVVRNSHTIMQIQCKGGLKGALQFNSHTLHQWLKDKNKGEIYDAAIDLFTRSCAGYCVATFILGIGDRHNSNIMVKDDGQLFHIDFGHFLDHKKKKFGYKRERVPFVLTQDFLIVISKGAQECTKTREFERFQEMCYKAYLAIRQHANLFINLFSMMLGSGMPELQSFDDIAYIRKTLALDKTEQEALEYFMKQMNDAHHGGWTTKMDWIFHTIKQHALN

The target in the first data set is Phosphatidylinositol 4,5-bisphosphate 3-kinase catalytic subunit beta isoform (Homo sapiens, UniProt P42338). The data set is described as follows: Inhibition of PI3Kbeta (unknown origin) using PIP2 as substrate preincubated for 1 hr followed by substrate addition and measured after 60 mins in presence of ATP by ADP-glo assay.
Phosphatidylinositol 4,5-bisphosphate 3-kinase catalytic subunit beta isoform, sequence (P42338 whole entry, canonical isoform): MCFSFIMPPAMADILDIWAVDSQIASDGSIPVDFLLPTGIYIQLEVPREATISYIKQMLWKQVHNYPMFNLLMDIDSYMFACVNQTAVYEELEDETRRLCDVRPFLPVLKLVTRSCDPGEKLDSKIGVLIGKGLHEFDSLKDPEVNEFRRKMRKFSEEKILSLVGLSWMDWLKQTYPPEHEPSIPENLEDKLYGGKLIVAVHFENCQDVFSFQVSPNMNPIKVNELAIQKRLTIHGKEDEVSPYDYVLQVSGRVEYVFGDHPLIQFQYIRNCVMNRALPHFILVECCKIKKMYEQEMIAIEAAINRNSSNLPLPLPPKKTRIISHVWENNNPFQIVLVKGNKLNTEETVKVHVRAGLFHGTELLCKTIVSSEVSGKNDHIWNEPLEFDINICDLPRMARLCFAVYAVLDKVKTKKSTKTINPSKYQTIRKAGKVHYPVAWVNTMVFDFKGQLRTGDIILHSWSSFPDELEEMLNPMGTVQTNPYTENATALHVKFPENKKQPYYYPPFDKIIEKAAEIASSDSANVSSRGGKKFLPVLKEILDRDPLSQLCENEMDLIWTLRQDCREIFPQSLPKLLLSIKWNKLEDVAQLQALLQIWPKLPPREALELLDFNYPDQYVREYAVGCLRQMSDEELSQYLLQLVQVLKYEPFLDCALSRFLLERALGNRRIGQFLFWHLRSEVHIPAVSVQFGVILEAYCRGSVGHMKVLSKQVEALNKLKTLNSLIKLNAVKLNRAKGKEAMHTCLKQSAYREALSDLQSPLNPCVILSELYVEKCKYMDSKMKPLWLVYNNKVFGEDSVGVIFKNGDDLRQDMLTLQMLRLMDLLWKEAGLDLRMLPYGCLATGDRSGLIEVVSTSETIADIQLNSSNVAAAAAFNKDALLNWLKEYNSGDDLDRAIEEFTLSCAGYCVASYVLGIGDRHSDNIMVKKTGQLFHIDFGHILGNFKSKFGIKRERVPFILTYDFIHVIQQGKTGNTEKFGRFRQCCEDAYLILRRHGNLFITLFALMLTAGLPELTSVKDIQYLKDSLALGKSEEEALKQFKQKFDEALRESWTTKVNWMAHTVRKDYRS
Settings: not given
In general terms: In ADP-Glo the light output rises with the ADP produced.
In general, IC50 refers to the concentration that gives 50% inhibition. As for `C[C@@H](C1CC1)N1Cc2cc(-c3ccn4nc(N)c(C(=O)N[C@H]5CC[C@](O)(C(F)(F)F)CC5)c4n3)cc(NS(C)(=O)=O)c2C1=O`, the IC50 was 9.78 µM.

Consider `C[C@@H](C1CC1)N1Cc2cc(-c3ccn4nc(N)c(C(=O)N[C@@H](CO)C5CC5)c4n3)cc(OC(F)F)c2C1=O`, for which the IC50 amounted to 29.4 µM.

For another data set, the species on record is Homo sapiens. The data set is described as follows: Selectivity ratio of IC50 for inhibition of PI3Kbeta (unknown origin) to IC50 for inhibition of PI3Kgamma (unknown origin).
Settings: not given
On to `C[C@@H](C1CC1)N1Cc2cc(-c3ccn4nc(N)c(C(=O)N[C@H]5CC[C@](O)(C(F)(F)F)CC5)c4n3)cc(NS(C)(=O)=O)c2C1=O`, for which the Ratio IC50 turned out to be 4560.

On to `C[C@@H](C1CC1)N1Cc2cc(-c3ccn4nc(N)c(C(=O)N[C@@H](CO)C5CC5)c4n3)cc(OC(F)F)c2C1=O`, for which the Ratio IC50 is 9400.

In another data set the target is T1, Phosphatidylinositol 4,5-bisphosphate 3-kinase catalytic subunit gamma isoform (Homo sapiens, UniProt P48736). The data set is described as follows: Inhibition of PI3Kgamma (unknown origin) in […] stimulated human THP-1 cells assessed as reduction in Akt phosphorylation level at Ser473 residue preincubated for 60 mins followed by rhMCP-1 stimulation and measured after 2 mins by AlphaLisa assay. Type of data set: cell-based.
T1 sequence (P48736 whole entry, canonical isoform): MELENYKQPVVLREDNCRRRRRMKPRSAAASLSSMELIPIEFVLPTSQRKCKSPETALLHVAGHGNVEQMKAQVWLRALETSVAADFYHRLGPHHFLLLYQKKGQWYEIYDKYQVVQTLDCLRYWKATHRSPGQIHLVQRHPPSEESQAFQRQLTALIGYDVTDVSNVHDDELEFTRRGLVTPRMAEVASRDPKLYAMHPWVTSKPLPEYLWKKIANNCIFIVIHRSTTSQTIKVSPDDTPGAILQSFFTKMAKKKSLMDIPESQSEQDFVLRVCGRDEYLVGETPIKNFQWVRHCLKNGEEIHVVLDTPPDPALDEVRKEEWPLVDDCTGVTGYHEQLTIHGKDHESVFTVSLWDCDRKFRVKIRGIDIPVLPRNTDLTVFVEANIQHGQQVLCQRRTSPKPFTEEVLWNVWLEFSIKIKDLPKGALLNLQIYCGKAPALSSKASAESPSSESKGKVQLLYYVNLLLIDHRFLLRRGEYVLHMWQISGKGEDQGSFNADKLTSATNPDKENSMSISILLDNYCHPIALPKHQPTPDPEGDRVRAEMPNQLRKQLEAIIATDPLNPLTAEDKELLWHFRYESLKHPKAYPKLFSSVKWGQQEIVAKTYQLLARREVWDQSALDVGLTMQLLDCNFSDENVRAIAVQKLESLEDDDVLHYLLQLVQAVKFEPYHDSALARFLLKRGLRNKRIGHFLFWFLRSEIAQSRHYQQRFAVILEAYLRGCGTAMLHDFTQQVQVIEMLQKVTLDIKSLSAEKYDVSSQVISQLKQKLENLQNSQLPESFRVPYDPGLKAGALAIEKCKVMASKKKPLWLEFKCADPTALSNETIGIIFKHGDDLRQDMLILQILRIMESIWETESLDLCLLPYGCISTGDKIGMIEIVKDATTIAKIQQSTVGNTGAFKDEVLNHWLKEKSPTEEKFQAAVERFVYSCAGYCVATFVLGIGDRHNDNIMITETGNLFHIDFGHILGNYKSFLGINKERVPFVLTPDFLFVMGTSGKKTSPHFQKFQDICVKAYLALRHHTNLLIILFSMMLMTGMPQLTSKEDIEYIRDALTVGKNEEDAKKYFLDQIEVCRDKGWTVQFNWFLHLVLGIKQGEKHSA
Settings: not given
A general note: Alpha assays give light when donor and acceptor beads are brought close together.
Regarding `C[C@@H](C1CC1)N1Cc2cc(-c3ccn4nc(N)c(C(=O)N[C@H]5CC[C@](O)(C(F)(F)F)CC5)c4n3)cc(NS(C)(=O)=O)c2C1=O`, the IC50 is 0.052 µM.

`C[C@@H](C1CC1)N1Cc2cc(-c3ccn4nc(N)c(C(=O)N[C@@H](CO)C5CC5)c4n3)cc(OC(F)F)c2C1=O`: the IC50 amounted to 0.048 µM.

A further data set addresses Phosphatidylinositol 4,5-bisphosphate 3-kinase catalytic subunit alpha isoform (Homo sapiens, UniProt P42336). Kind of data set: Inhibition of PI3Kalpha (unknown origin) using PIP2 as substrate preincubated for 1 hr followed by substrate addition and measured after 60 mins in presence of ATP by ADP-glo assay.
Settings: not given
With `C[C@@H](C1CC1)N1Cc2cc(-c3ccn4nc(N)c(C(=O)N[C@H]5CC[C@](O)(C(F)(F)F)CC5)c4n3)cc(NS(C)(=O)=O)c2C1=O`, the IC50 came out at 4.03 µM.

With `C[C@@H](C1CC1)N1Cc2cc(-c3ccn4nc(N)c(C(=O)N[C@@H](CO)C5CC5)c4n3)cc(OC(F)F)c2C1=O`, the IC50 stood at 1.91 µM.

Test system in a further data set: not listed separately
Kind of data set: Metabolic stability in human hepatocytes assessed as intrinsic clearance per 10^6 cells at 0.5 uM by LC-MS/MS analysis. Type of data set: ADME, cell-based, Hepatocyte. Conditions: read-out: CLH.
For the compound `C[C@@H](C1CC1)N1Cc2cc(-c3ccn4nc(N)c(C(=O)N[C@H]5CC[C@](O)(C(F)(F)F)CC5)c4n3)cc(NS(C)(=O)=O)c2C1=O`, the hepatocyte CLint at 0.5 µM was 1.9 µL/min/1e6 cells.

Consider `C[C@@H](C1CC1)N1Cc2cc(-c3ccn4nc(N)c(C(=O)N[C@@H](CO)C5CC5)c4n3)cc(OC(F)F)c2C1=O`, for which the hepatocyte CLint at 0.5 µM stood at 4.35 µL/min/1e6 cells.

In the next data set the target is T1, Phosphatidylinositol 4,5-bisphosphate 3-kinase catalytic subunit gamma isoform. Kind of data set: Inhibition of PI3Kgamma (unknown origin) using PIP2 as substrate preincubated for 1 hr followed by substrate addition and measured after 60 mins in presence of ATP by ADP-glo assay.
Settings: not given
With `C[C@@H](C1CC1)N1Cc2cc(-c3ccn4nc(N)c(C(=O)N[C@H]5CC[C@](O)(C(F)(F)F)CC5)c4n3)cc(NS(C)(=O)=O)c2C1=O`, the IC50 was determined as 0.0021 µM.

In the case of `C[C@@H](C1CC1)N1Cc2cc(-c3ccn4nc(N)c(C(=O)N[C@@H](CO)C5CC5)c4n3)cc(OC(F)F)c2C1=O`, the IC50 worked out at 0.0031 µM.

Test system in another data set: not listed separately
The data set is described as follows: Metabolic stability in rat hepatocyte assessed as intrinsic clearance per 10^8 cells at 0.5 uM by LC-MS/MS analysis. Conditions: hepatocytes. The format is ADME, cell-based.
For `C[C@@H](C1CC1)N1Cc2cc(-c3ccn4nc(N)c(C(=O)N[C@H]5CC[C@](O)(C(F)(F)F)CC5)c4n3)cc(NS(C)(=O)=O)c2C1=O`, the hepatocyte intrinsic clearance was determined as 11 µL/min.

For `C[C@@H](C1CC1)N1Cc2cc(-c3ccn4nc(N)c(C(=O)N[C@@H](CO)C5CC5)c4n3)cc(OC(F)F)c2C1=O`, the hepatocyte intrinsic clearance was 8.42 µL/min.

In another data set the target is T2, hERG (Homo sapiens, UniProt Q12809). The data set is described as follows: Inhibition of human ERG at 10 uM by patch clamp assay relative to control. The format is toxicity.
T2 sequence (Q12809 whole entry): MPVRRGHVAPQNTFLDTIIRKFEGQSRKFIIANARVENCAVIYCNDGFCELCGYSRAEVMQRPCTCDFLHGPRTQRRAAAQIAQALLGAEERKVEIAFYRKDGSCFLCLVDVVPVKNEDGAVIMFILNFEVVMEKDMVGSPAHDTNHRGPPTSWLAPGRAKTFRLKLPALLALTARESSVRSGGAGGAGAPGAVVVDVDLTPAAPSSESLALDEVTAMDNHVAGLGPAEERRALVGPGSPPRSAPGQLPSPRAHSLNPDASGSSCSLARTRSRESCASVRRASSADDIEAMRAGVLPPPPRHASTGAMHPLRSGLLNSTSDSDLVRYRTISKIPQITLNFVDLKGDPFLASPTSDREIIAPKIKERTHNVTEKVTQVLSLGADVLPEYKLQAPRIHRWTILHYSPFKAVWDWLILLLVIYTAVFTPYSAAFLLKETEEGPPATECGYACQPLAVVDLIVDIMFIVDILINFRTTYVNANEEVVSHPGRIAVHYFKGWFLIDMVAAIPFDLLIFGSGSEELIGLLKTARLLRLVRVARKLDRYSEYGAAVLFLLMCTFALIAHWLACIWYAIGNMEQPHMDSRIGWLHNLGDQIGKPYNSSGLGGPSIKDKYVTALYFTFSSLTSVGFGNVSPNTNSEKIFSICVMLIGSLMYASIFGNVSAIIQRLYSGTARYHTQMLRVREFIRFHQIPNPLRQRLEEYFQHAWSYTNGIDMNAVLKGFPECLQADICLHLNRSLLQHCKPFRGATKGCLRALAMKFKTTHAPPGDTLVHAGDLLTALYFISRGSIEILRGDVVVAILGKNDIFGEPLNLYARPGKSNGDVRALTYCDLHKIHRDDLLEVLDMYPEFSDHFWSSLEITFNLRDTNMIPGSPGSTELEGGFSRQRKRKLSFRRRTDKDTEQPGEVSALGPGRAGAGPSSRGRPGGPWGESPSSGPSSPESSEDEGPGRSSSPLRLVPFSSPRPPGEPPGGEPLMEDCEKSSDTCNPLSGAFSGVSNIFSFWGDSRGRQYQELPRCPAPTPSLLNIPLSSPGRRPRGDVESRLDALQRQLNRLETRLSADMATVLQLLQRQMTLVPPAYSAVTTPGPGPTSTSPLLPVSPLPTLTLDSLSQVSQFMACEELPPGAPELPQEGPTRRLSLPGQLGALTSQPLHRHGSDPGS
Settings: not given
By inhibition is commonly meant the share of the control response that was lost under treatment. A high value points to strong suppression. `C[C@@H](C1CC1)N1Cc2cc(-c3ccn4nc(N)c(C(=O)N[C@H]5CC[C@](O)(C(F)(F)F)CC5)c4n3)cc(NS(C)(=O)=O)c2C1=O` yielded an inhibition at 10 µM of 68%.

In the case of `C[C@@H](C1CC1)N1Cc2cc(-c3ccn4nc(N)c(C(=O)N[C@@H](CO)C5CC5)c4n3)cc(OC(F)F)c2C1=O`, the inhibition at 10 µM stood at 21%.

The next data set deals with CYP3A4 (Homo sapiens, UniProt P08684). Kind of data set: in vitro. The note with it: human liver microsomes, probe midazolam. In general terms: Microsomes from liver hold many membrane-bound enzymes, among them those of drug oxidation.
CYP3A4, sequence (P08684 whole entry): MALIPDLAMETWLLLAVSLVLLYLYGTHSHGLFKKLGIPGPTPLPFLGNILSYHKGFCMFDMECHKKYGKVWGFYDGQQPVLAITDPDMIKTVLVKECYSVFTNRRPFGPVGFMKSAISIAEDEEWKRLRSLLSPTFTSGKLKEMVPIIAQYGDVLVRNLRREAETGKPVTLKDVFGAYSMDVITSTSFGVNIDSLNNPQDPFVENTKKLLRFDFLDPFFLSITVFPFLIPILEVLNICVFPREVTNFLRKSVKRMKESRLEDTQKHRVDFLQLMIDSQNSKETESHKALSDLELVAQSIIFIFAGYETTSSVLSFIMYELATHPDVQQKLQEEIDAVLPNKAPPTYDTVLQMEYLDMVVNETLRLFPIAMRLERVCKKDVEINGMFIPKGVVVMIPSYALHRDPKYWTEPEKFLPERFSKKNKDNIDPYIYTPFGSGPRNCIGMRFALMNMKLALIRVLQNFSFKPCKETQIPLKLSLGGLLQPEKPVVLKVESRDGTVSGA
Description: Time dependent inhibition of CYP3A4 in human liver microsomes at 10 uM using midazolam as substrate preincubated for 30 mins in presence of NADPH by LC/MS/MS analysis relative to control
`C[C@@H](C1CC1)N1Cc2cc(-c3ccn4nc(N)c(C(=O)N[C@H]5CC[C@](O)(C(F)(F)F)CC5)c4n3)cc(NS(C)(=O)=O)c2C1=O` came in with an inhibition at 30 min, 10 µM of 17%.

Consider `C[C@@H](C1CC1)N1Cc2cc(-c3ccn4nc(N)c(C(=O)N[C@@H](CO)C5CC5)c4n3)cc(OC(F)F)c2C1=O`, for which the inhibition at 30 min, 10 µM is 18%.

The next data set concerns the target T3, Phosphatidylinositol 4,5-bisphosphate 3-kinase catalytic subunit delta isoform (Homo sapiens, UniProt O00329).
T3 sequence (O00329 whole entry): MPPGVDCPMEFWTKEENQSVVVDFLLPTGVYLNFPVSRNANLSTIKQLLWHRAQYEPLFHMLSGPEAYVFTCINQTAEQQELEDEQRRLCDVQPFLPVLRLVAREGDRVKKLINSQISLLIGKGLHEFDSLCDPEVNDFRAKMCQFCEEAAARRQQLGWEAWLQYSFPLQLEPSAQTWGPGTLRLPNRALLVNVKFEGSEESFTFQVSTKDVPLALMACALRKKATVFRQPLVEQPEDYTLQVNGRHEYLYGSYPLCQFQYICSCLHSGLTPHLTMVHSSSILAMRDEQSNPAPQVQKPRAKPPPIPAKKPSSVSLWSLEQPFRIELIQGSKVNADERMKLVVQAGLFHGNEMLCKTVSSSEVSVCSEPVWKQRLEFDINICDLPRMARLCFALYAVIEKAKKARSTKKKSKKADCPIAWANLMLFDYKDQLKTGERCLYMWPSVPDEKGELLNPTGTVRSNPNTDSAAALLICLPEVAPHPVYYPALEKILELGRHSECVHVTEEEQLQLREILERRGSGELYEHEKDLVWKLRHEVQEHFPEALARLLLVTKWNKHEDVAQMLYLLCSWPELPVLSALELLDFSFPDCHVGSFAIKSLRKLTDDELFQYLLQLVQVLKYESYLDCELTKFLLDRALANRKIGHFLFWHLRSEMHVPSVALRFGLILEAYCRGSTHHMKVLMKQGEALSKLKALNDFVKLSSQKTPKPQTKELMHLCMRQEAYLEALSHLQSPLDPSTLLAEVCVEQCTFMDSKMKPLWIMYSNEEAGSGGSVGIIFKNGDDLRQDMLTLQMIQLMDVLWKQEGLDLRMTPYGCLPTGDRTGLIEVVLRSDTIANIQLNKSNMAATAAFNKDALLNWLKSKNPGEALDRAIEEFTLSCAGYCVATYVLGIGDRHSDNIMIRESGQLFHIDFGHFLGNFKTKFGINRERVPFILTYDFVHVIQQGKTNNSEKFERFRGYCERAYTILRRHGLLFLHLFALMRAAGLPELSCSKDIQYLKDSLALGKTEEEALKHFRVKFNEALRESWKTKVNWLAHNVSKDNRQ
Kind of data set: Inhibition of PI3Kdelta (unknown origin) using PIP2 as substrate preincubated for 1 hr followed by substrate addition and measured after 60 mins in presence of ATP by ADP-glo assay.
Settings: not given
`C[C@@H](C1CC1)N1Cc2cc(-c3ccn4nc(N)c(C(=O)N[C@H]5CC[C@](O)(C(F)(F)F)CC5)c4n3)cc(NS(C)(=O)=O)c2C1=O`: the IC50 was 1.06 µM.

Take `C[C@@H](C1CC1)N1Cc2cc(-c3ccn4nc(N)c(C(=O)N[C@@H](CO)C5CC5)c4n3)cc(OC(F)F)c2C1=O`: the IC50 was 3.11 µM.

The target of the next data set is T1, Phosphatidylinositol 4,5-bisphosphate 3-kinase catalytic subunit gamma isoform. The data set is described as follows: Inhibition of PI3Kgamma in SDF-1alpha stimulated human whole blood assessed as reduction in phospho-AKT kinase activity preincubated for 1 hr followed by SDF-1alpha stimulation and measured after 2 mins by flow cytometric analysis. Type of data set: tissue-based.
Settings: not given
`C[C@@H](C1CC1)N1Cc2cc(-c3ccn4nc(N)c(C(=O)N[C@H]5CC[C@](O)(C(F)(F)F)CC5)c4n3)cc(NS(C)(=O)=O)c2C1=O`: the IC50 was determined as 0.21 µM.

Regarding `C[C@@H](C1CC1)N1Cc2cc(-c3ccn4nc(N)c(C(=O)N[C@@H](CO)C5CC5)c4n3)cc(OC(F)F)c2C1=O`, the IC50 worked out at 0.51 µM.

Test system in the next data set: not listed separately
The data set is described as follows: Hepatic clearance in Sprague-Dawley rat by LC-MS/MS analysis. The note with it: in vivo. Type of data set: ADME.
On to `C[C@@H](C1CC1)N1Cc2cc(-c3ccn4nc(N)c(C(=O)N[C@H]5CC[C@](O)(C(F)(F)F)CC5)c4n3)cc(NS(C)(=O)=O)c2C1=O`, for which the CLH was 1.4 L/h/kg.

Turning to `C[C@@H](C1CC1)N1Cc2cc(-c3ccn4nc(N)c(C(=O)N[C@@H](CO)C5CC5)c4n3)cc(OC(F)F)c2C1=O`, the CLH was 0.9 L/h/kg.

The target in a further data set is T2, hERG. The data set is described as follows: Inhibition of human ERG at 3 uM by patch clamp assay relative to control.
Settings: not given
The format is toxicity.
As to `C[C@@H](C1CC1)N1Cc2cc(-c3ccn4nc(N)c(C(=O)N[C@H]5CC[C@](O)(C(F)(F)F)CC5)c4n3)cc(NS(C)(=O)=O)c2C1=O`, the inhibition at 3 µM was 45%.

For the next data set, the species on record is Homo sapiens. The data set is described as follows: Selectivity ratio of IC50 for inhibition of PI3Kalpha (unknown origin) to IC50 for inhibition of PI3Kgamma (unknown origin).
Settings: not given
As to `C[C@@H](C1CC1)N1Cc2cc(-c3ccn4nc(N)c(C(=O)N[C@H]5CC[C@](O)(C(F)(F)F)CC5)c4n3)cc(NS(C)(=O)=O)c2C1=O`, the Ratio IC50 stood at 1880.

For `C[C@@H](C1CC1)N1Cc2cc(-c3ccn4nc(N)c(C(=O)N[C@@H](CO)C5CC5)c4n3)cc(OC(F)F)c2C1=O`, the Ratio IC50 amounted to 611.
